# Assay results published in US20260015350A1, “AZAQUINAZOLINE PAN-KRAS INHIBITORS” (Mirati Therapeutics, Inc., priority 2022, published 2026).
# Tests used:
# [1] = target: T1, KRas^G12R (Homo sapiens, UniProt P01116, G12R); test: KRas binding assay (TR-FRET tracer displacement), KRas G12R
# T1 construct: Biotinylated KRas (corresponding to amino acids 1-169, produced at Accelegan Inc.); biotin (biotinylated); purchased Accelegan Inc
# [2] = system: KRas-mediated phosphorylation of ERK in H727 cells; test: Inhibition of KRas-mediated phosphorylation of ERK (Cisbio HTRF pERK), H727 cells; assay type: cell-based; conditions: HTRF pERK
# Method: (§1) Inhibition of KRas Phosphorylation of ERK (HTRF) by Exemplary Compounds of Formula (I) Cisbio HTRF Advanced PERK Assay Catalog #64[…] […] Add 10 mL of media to stop trypsinizing. Pipette the cells into a conical bottom 50 mL centrifuge tube and centrifuge 5 min×1000 rpm. […] Re-suspend the cell pellet in media, take a cell count, and then adjust the cell density using fresh media. […] Seed 6,000 cells into cell culture plate with 50 μL media. […] Use Tecan to complete the compound addition. Compounds start from 10 uM top, 3-fold dilution, and 10 doses. The final DMSO concentration is 0.8%. Dispensed 0.2 uM Trametinib as Min control. […] Incubate cell plate for 3 hrs in the incubator. […] Dilute 1 volume of 4× lysis buffer with 3 volumes of deionized water. […] Keep lysis buffer on the ice. […] At the end of the compound treatment, flick-off the media. […] Add 35 μL of lysis buffer per well using a Multidrop Combi. Then place on a plate agitator shaking at 300 rpm at 4° C. for 40 mins. […] Make up the HTRF antibody buffer. For each assay plate, mix 50 μL of d2-conjugate antibody with 950 μL of detection buffer. Similarly, mix 50 μL of Cryptate antibody with 950 μL of detection buffer. Then mix the two diluted antibodies together. […] Dispense 3.4 μL the antibody buffer to wells of an empty assay plate. Seal the plate and centrifuge plate 30 sec×1000 rpm. […] At the end of the 4° C. lysis, centrifuge the lysate plates 3 mins×1500 rpm. […] Use the Bravo to transfer 13.6 μL of lysate from cell culture plate to assay plate. Then incubate assay plate for 2 hrs at room temperature. 8. At the end of incubation, read plate on the Envision after centrifuging plate 30 sec×1000 rpm.
# [3] = target: T2, KRas^G12D (Homo sapiens, UniProt P01116, G12D); test: KRas binding assay (TR-FRET tracer displacement), KRas G12D
# T2 construct: Biotinylated KRas (corresponding to amino acids 1-169, produced at Accelegan Inc.); biotin (biotinylated); purchased Accelegan Inc
# [4] = target: T3, KRas^G12V (Homo sapiens, UniProt P01116, G12V); test: KRas binding assay (TR-FRET tracer displacement), KRas G12V
# T3 construct: Biotinylated KRas (corresponding to amino acids 1-169, produced at Accelegan Inc.); biotin (biotinylated); purchased Accelegan Inc
# [5] = system: KRas-mediated phosphorylation of ERK in AsPC-1 cells; test: Inhibition of KRas-mediated phosphorylation of ERK (Cisbio HTRF pERK), AsPC-1 cells; assay type: cell-based; conditions: HTRF pERK
# Method: as §1
# [6] = Homo sapiens, NCI-H727, H727 cells
# [7] = Homo sapiens, ASPC1, AsPC-1 cells
# T1 sequence (P01116 1-169 isoform P01116-2 G12R): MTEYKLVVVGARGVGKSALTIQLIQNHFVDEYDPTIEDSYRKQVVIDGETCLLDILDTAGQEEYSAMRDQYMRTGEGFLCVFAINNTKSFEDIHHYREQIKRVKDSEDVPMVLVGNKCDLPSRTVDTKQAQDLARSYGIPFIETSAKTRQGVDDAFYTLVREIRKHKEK
# T3 sequence (P01116 1-169 isoform P01116-2 G12V): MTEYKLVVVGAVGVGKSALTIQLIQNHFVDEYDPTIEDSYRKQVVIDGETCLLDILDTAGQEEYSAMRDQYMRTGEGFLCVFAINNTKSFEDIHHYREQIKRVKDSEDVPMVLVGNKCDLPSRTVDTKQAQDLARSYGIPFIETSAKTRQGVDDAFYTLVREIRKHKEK
# T2 sequence (P01116 1-169 isoform P01116-2 G12D): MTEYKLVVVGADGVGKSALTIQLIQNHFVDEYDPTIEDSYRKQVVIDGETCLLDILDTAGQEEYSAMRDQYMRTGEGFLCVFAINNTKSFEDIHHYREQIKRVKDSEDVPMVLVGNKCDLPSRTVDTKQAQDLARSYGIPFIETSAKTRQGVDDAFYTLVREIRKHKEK
SMILES,IC50 [1] [nM],"IC50 [2, 6] [nM]",IC50 [3] [nM],IC50 [4] [nM],"IC50 [5, 7] [nM]",IC50 ([2]; H727 cells) [nM],IC50 ([5]; AsPC-1 cells) [nM]
"O=C1CC2CN(c3nc(OCC45CCCN4CCC5)nc4c(F)c(-c5cccc6cccc(F)c56)ncc34)CCC2C(=O)N1 (centres unmarked) [Example 526, 6-(8-fluoro-7-(8-fluoronaphthalen-1-yl)-2-((hexahydro-1H-pyrrolizin-7a-yl)methoxy)pyrido[4,3-d]pyrimidin-4-yl)hexahydro-2,6-naphthyridine-1,3(2H,4H)-dione]",67700,> 10000,> 100000,> 100000,> 10000,–,–
"CCc1c(F)ccc2cc(O)cc(-c3ncc4c(N5CCC[C@@](C)(O)C5)nc(N5CC(N)C5)nc4c3F)c12 [Example 527, (R)-1-(2-(3-aminoazetidin-1-yl)-7-(8-ethyl-7-fluoro-3-hydroxynaphthalen-1-yl)-8-fluoropyrido[4,3-d]pyrimidin-4-yl)-3-methylpiperidin-3-ol]",193,> 10000,116,150,> 10000,–,–
"CCc1c(F)ccc2cc(O)cc(-c3ncc4c(N5CCCC6(C5)NC(=O)NC6=O)nc(N5CC(N)C5)nc4c3F)c12 (centres unmarked) [Example 528, 7-(2-(3-aminoazetidin-1-yl)-7-(8-ethyl-7-fluoro-3-hydroxynaphthalen-1-yl)-8-fluoropyrido[4,3-d]pyrimidin-4-yl)-1,3,7-triazaspiro[4.5]decane-2,4-dione]",3,> 10000,8,3,> 10000,–,–
"CCc1c(F)ccc2cc(O)cc(-c3ncc4c(N5CCCn6nc(C(=O)N(C)C)cc6C5)nc(N5CC(N)C5)nc4c3F)c12 [Example 529, 5-(2-(3-aminoazetidin-1-yl)-7-(8-ethyl-7-fluoro-3-hydroxynaphthalen-1-yl)-8-fluoropyrido[4,3-d]pyrimidin-4-yl)-N,N-dimethyl-5,6,7,8-tetrahydro-4H-pyrazolo[1,5-a][1,4]diazepine-2-carboxamide]",36,> 10000,14,21,> 10000,–,–
"CCc1c(F)ccc2cc(O)cc(-c3ncc4c(N5CCCC6(C5)NC(=O)NC6=O)nc(N5CC(C)(N)C5)nc4c3F)c12 (centres unmarked) [Example 531, 7-(2-(3-amino-3-methylazetidin-1-yl)-7-(8-ethyl-7-fluoro-3-hydroxynaphthalen-1-yl)-8-fluoropyrido[4,3-d]pyrimidin-4-yl)-1,3,7-triazaspiro[4.5]decane-2,4-dione]",< 2,> 10000,5,< 2,> 10000,–,–
"CCc1c(F)ccc2cc(O)cc(-c3ncc4c(N5CCCn6nc(C(=O)N(C)C)cc6C5)nc(N5CC(C)(N)C5)nc4c3F)c12 [Example 532, 5-(2-(3-amino-3-methylazetidin-1-yl)-7-(8-ethyl-7-fluoro-3-hydroxynaphthalen-1-yl)-8-fluoropyrido[4,3-d]pyrimidin-4-yl)-N,N-dimethyl-5,6,7,8-tetrahydro-4H-pyrazolo[1,5-a][1,4]diazepine-2-carboxamide]",24,> 10000,9,15,> 10000,–,–
"CCc1c(F)ccc2cc(O)cc(-c3ncc4c(NC5CCONC5)nc(OC[C@@]56CCCN5C[C@H](F)C6)nc4c3F)c12 (stereo partly drawn) [Example 542, 4-(4-((1,2-oxazinan-4-yl)amino)-8-fluoro-2-(((2R,7aS)-2-fluorohexahydro-1H-pyrrolizin-7a-yl)methoxy)pyrido[4,3-d]pyrimidin-7-yl)-5-ethyl-6-fluoronaphthalen-2-ol]",6,2330,60,9,> 10000,–,–
"CCc1c(F)ccc2cc(O)cc(-c3ncc4c(N5CCN(C)C[C@]6(C)CCC[C@@H]56)nc(OC[C@@]56CCCN5C[C@H](F)C6)nc4c3F)c12 [Example 866, 4-(4-((5aS,8aR)-4,5a-dimethyloctahydrocyclopenta[e][1,4]diazepin-1(2H)-yl)-8-fluoro-2-(((2R,7aS)-2-fluorotetrahydro-1H-pyrrolizin-7a(5H)-yl)methoxy)pyrido[4,3-d]pyrimidin-7-yl)-5-ethyl-6-fluoronaphthalen-2-ol]",7350,–,102,3530,–,–,–
"CCCCCCCCCCN(C)C(=O)OC[C@@H]1CC[C@@]2(COc3nc(N4CCC[C@@](C)(O)C4)c4cnc(-c5cc(O)cc6ccc(F)c(CC)c56)c(F)c4n3)CCCN12 [Example 894, ((3S,7aR)-7a-(((7-(8-ethyl-7-fluoro-3-hydroxynaphthalen-1-yl)-8-fluoro-4-((R)-3-hydroxy-3-methylpiperidin-1-yl)pyrido[4,3-d]pyrimidin-2-yl)oxy)methyl)hexahydro-1H-pyrrolizin-3-yl)methyl decyl(methyl)carbamate]",177,–,121,119,–,–,–
"O[C@@H]1CCCN(c2nc(OCC34CCCN3CCC4)nc3c(F)c(-c4cccc5cccc(Cl)c45)ncc23)C1 [Example 902, (R)-1-(7-(8-chloronaphthalen-1-yl)-8-fluoro-2-((tetrahydro-1H-pyrrolizin-7a(5H)-yl)methoxy)pyrido[4,3-d]pyrimidin-4-yl) piperidin-3-ol]",876,–,834,902,–,–,–
"O[C@H]1CCCN(c2nc(OCC34CCCN3CCC4)nc3c(F)c(-c4cccc5cccc(Cl)c45)ncc23)C1 [Example 903, (S)-1-(7-(8-chloronaphthalen-1-yl)-8-fluoro-2-((tetrahydro-1H-pyrrolizin-7a(5H)-yl)methoxy)pyrido[4,3-d]pyrimidin-4-yl) piperidin-3-ol]",11200,–,9830,15100,–,–,–
"O=S1(=O)NCC2(CCCN(c3nc(OCC45CCCN4CCC5)nc4c(F)c(-c5cccc6cccc(CO)c56)ncc34)C2)N1 (centres unmarked) [Example 906, 7-(8-fluoro-7-(8-(hydroxymethyl)naphthalen-1-yl)-2-((tetrahydro-1H-pyrrolizin-7a(5H)-yl)methoxy)pyrido[4,3-d]pyrimidin-4-yl)-2-thia-1,3,7-triazaspiro[4.5]decane 2,2-dioxide]",646,–,66,247,–,–,–

# Further lines, results first:
IC50 [1] [nM],"IC50 [2, 6] [nM]",IC50 [3] [nM],IC50 [4] [nM],"IC50 [5, 7] [nM]",IC50 ([2]; H727 cells) [nM],IC50 ([5]; AsPC-1 cells) [nM],SMILES
59,> 10000,300,62,> 10000,–,–,"CCc1c(F)ccc2cc(O)cc(-c3ncc4c(N5C[C@H]6C[C@@H](C5)[C@@H](O)[C@@H]6O)nc(OC[C@@]56CCCN5C[C@H](F)C6)nc4c3F)c12 (single isomer, unassigned) [Example 571]"
4,–,9,4,–,763,1550,"CCc1c(F)ccc2cc(O)cc(-c3ncc4c(N5CCCC(C6CCNC6=O)C5)nc(OC[C@@]56CCCN5C[C@H](F)C6)nc4c3F)c12 (single isomer, unassigned) [Example 617]"
195,–,644,168,–,> 10000,> 10000,"CCc1c(F)ccc2cc(O)cc(-c3ncc4c(N5CCCC(C6CCNC6=O)C5)nc(OC[C@@]56CCCN5C[C@H](F)C6)nc4c3F)c12 (single isomer, unassigned) [Example 618]"
4,–,33,21,–,1810,3620,"CCc1c(F)ccc2cc(O)cc(-c3ncc4c(N5CCCC(C6CCNC6=O)C5)nc(OC[C@@]56CCCN5C[C@H](F)C6)nc4c3F)c12 (single isomer, unassigned) [Example 619]"
37,1010,72,35,1830,–,–,"CCc1c(F)ccc2cc(O)cc(-c3ncc4c(N5C[C@H]6CC[C@@]6(O)C5)nc(OC[C@@]56CCCN5C[C@H](F)C6)nc4c3F)c12 [Example 546, (1S,5R)-3-(7-(8-ethyl-7-fluoro-3-hydroxynaphthalen-1-yl)-8-fluoro-2-(((2R,7aS)-2-fluorohexahydro-1H-pyrrolizin-7a-yl)methoxy)pyrido[4,3-d]pyrimidin-4-yl)-3-azabicyclo[3.2.0]heptan-1-ol]"
71,5300,810,244,9330,–,–,"CCc1c(F)ccc2cc(O)cc(-c3ncc4c(N5CCC6CCCC5C6)nc(OC[C@@]56CCCN5C[C@H](F)C6)nc4c3F)c12 (stereo partly drawn) [Example 552, 4-(4-(2-azabicyclo[3.3.1]nonan-2-yl)-8-fluoro-2-(((2R,7aS)-2-fluorotetrahydro-1H-pyrrolizin-7a(5H)-yl)methoxy)pyrido[4,3-d]pyrimidin-7-yl)-5-ethyl-6-fluoronaphthalen-2-ol]"
